Measured values taken from patent US20090156620A1, “[4-(6-FLUORO-7-METHYLAMINO-2,4-DIOXO-1,4-DIHYDRO-2H-QUINAZOLIN-3-YL)-PHENYL]-5-CHLORO-THIOPHEN-2-YL-SULFONYLUREA SALTS, FORMS AND METHODS RELATED THERETO” (Portola Pharmaceuticals, Inc., priority 2007, published 2009).
Blank lines part the entries; values can stand above or below the molecule they belong to.

Columns and labels:
[1] = target: T1, P2Y12 receptor on platelets (Homo sapiens, UniProt Q9H244); experiment: platelet ADP receptor binding assay (ARB), inhibition of [3H]2-MeS-ADP binding to platelets
T1 construct: endogenous in cells; host or cells: whole apyrase-washed human platelets (outdated from hospital blood banks, or fresh)
T1 sequence (Q9H244 whole entry): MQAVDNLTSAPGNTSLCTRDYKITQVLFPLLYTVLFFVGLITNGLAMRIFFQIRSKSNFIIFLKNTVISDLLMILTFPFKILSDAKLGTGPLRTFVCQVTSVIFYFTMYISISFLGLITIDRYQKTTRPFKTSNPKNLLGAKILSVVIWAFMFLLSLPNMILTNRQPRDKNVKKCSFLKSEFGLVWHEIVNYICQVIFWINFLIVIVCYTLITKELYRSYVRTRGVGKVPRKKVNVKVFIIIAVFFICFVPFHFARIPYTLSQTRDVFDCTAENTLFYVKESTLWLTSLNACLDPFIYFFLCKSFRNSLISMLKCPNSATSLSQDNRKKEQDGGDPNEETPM
Procedure: 1. The Ability of Candidate Molecules to Inhibit the Binding of [3H]2-MeS-ADP to the P2Y12 Receptor on Platelets was Determined Using a Radioligand Binding Assay
Utilizing this assay the potency of inhibition of such compounds with respect to [^3H]2-MeS-ADP binding to whole platelets is determined. Under the conditions described in II (3) below, the binding of [^3H]2-MeS-ADP is solely due to the interaction of this ligand with the P2Y12 receptor, in that all the specific binding measured in this assay is compatable with a P2Y12 antagonist (i.e., the specific binding is reduced to background levels by competition with an excess of P2Y12 antagonist, with no competition of binding when a P2Y1 antagonist is pre-incubated with the platelet preparation). […]
A platelet ADP receptor binding assay (ARB) using the tritiated potent agonist ligand [^3H]2-MeS-ADP (Jantzen, H. M. et al. (1999) Thromb. Hemost. 81:111-117) has been adapted to the 96-well microtiter format. […] Total binding is determined in the absence of test compounds. […] The platelet-bound radioactivity on the filtermats is determined in a scintillation counter (Microbeta 1450, Wallac Inc., Gaithersburg, Md.). Specific binding is determined by subtraction of non-specific binding from total binding, and specific binding in the presence of test compounds is expressed as % of specific binding in the absence of test compound dilutions. […]

[2] = tested on: ADP-induced human platelet aggregation; experiment: inhibition of ADP-mediated platelet aggregation in platelet-rich plasma (PRP assay); assay type: cell-based
Procedure: The effect of testing the compound according to the invention on ADP-induced human platelet aggregation was assessed in a 96-well microtiter assay (see generally the procedures in Jantzen, H. M. et al. (1999) Thromb. Hemost. 81:111′-117) or standard cuvette light transmittance aggregometry using either human platelet-rich plasma (PRP) or human washed platelets.
For preparation of human platelet-rich plasma for aggregation assays, human venous blood was collected from healthy, drug-free volunteers into 0.38% sodium citrate (0.013 M, pH 7.0 final). Platelet-rich plasma (PRP) is prepared by centrifugation of whole blood at 160×g for 20 minutes at room temperature. […]
For cuvette light transmittance aggregation assays, serial dilutions (1:3) of test compounds were prepared in 100% DMSO in a 96 well V-bottom plate (final DMSO concentration in the cuvette was 0.6%). […] The aggregation reaction is recorded for ˜5 mins, and maximum extent of aggregation is determined by the difference in extent of aggregation at baseline, compared to the maximum aggregation that occurs during the five minute period of the assay. Inhibition of aggregation was calculated as the maximum aggregation observed in the presence of inhibitor, compared to that in the absence of inhibitor. […]

[3] = gravimetric vapour sorption (GVS); assay type: physicochemical
Procedure: Sorption isotherms were obtained using a Hiden IGASorp moisture sorption analyser, controlled by CFRSorp software. The sample temperature was maintained at 25° C. by a Huber re-circulating water bath. The humidity was controlled by mixing streams of dry and wet nitrogen, with a total flow rate of 250 ml.min^−1. […] (typical room conditions). A moisture sorption isotherm was performed as outlined below (2 scans giving 1 complete cycle). […] The software uses a least squares minimisation procedure together with a model of the mass relaxation, to predict an asymptotic value. […] The minimum equilibration time was set to 1 hour and the maximum to 4 hours. The sample was recovered after completion of the isotherm and re-analysed by XRPD.

[4] = accelerated stability test, chemical purity; assay type: physicochemical; settings: one week, 40° C., 75% RH
Procedure: Purity analysis was performed on an Agilent HP1100 system equipped with a diode array detector and using ChemStation software v9.

[5] = solid form stability on storage at elevated temperature/humidity, by XRPD; assay type: physicochemical; settings: 75% RH/40° C. for up to 6 months
Procedure: To 20 mg of [4-(6-fluoro-7-methylamino-2,4-dioxo-1,4-dihydro-2H-quinazolin-3-yl)-phenyl]-5-chloro-thiophen-2-yl-sulfonylurea in 3 mL of the various solvents, was added 1.1 eq. of the base in 1 mL solvent. The mixture was shaken for 2 hours and the solutions were left to evaporate down to half their volume to try to precipitate out the salt. […] Oils/emulsions and opaque liquids were left to maturate at 50° C./ambient in an 8 hour cycles for several weeks. […] Solid samples (crystalline and amorphous) were then filtered, dried and then analyzed to judge their purity, crystallinity and stability. Solids were analysed by ^1H NMR to confirm salt formation and analyzed by ion chromatography and TGA to obtain the stoichiometry of the salt.

[6] = solid form stability of API dispersed in aqueous vehicle; assay type: physicochemical; settings: dry ground API dispersed into aqueous 0.1M phosphate buffer
Description: It was observed that after grinding the API with the diluent of Tox formulation, i.e., 0.5% methylcellulose and 0.1M phosphate sodium buffer at pH7.4, the drug particles became very dense and quickly precipitated during transfer and dosing. […] In addition, if only dry grinding is used to reduce the particle size of the API first and subsequently, the API is quickly dispersed into aqueous 0.1M phosphate buffer without applying significant mechanical stress, the solid form of the API can be maintained in form B for at least 6 hours.

[7] = polymorphism experiments, form B slurried in solvents; assay type: physicochemical; settings: ca. 50 mg in ten volumes, ambient, two hours
Description: The propensity of [4-(6-fluoro-7-methylamino-2,4-dioxo-1,4-dihydro-2H-quinazolin-3-yl)-phenyl]-5-chloro-thiophen-2-yl-sulfonylurea potassium salt form B to form polymorphs was studied. Form B (a hemi-hydrate) was slurried in a range of solvents (neat and mixtures). The solvents were chosen based on their pharmaceutical acceptability and also a range of functional groups and polarities such as alcohols, ethers and esters. To encourage hydrate formation, aqueous mixtures were also chosen. The solvents used are detailed in Table 7.
Approximately 50 mg of [4-(6-fluoro-7-methylamino-2,4-dioxo-1,4-dihydro-2H-quinazolin-3-yl)-phenyl]-5-chloro-thiophen-2-yl-sulfonylurea potassium salt, form B was suspended in ten volumes of the solvents detailed in table 7 and stirred at ambient for two hours. […] The suspensions were filtered under vacuum and analysed by XRPD. Most of the solids remained as form B, with a 1:1 acetone/water mixture leading to a subtle change in solid form. The 1:1 tetrahydrofuran/water mixture generated a mixture of that subtly different form and form B.
To all the form B samples a further aliquot of five volumes of appropriate solvent was added and the suspensions were slurried at 50° C. for 4 hours then cooled to ambient for 4 hours. This cycle was repeated for a total of 24 hours, after which time the suspensions were filtered under vacuum and analysed by XRPD.

Molecule: CNc1cc2[nH]c(=O)n(-c3ccc(NC(=O)NS(=O)(=O)c4ccc(Cl)s4)cc3)c(=O)c2cc1F [Example 2, [4-(6-fluoro-7-methylamino-2,4-dioxo-1,4-dihydro-2H-quinazolin-3-yl)-phenyl]-5-chloro-thiophen-2-yl-sulfonylurea]
IC50 [1]: < 0.05 µM | IC50 [2]: < 10 µM

Molecule: CNc1cc2[nH]c(=O)n(-c3ccc(NC(=O)NS(=O)(=O)c4ccc(Cl)s4)cc3)c(=O)c2cc1Cl [Example 3, [4-(6-chloro-7-methylamino-2,4-dioxo-1,4-dihydro-2H-quinazolin-3-yl)-phenyl]-5-chloro-thiophen-2-1-sulfonylurea]
IC50 [1]: > 0.5 µM | IC50 [2]: > 30 µM

Molecule: CNc1cc2[nH]c(=O)n(-c3ccc(NC(=O)NS(=O)(=O)c4ccc(Cl)s4)cc3)c(=O)c2cc1F.[K] [Form A of the potassium salt, [4-(6-fluoro-7-methylamino-2,4-dioxo-1,4-dihydro-2H-quinazolin-3-yl)-phenyl]-5-chloro-thiophen-2-yl-sulfonylurea potassium salt 2.5 hydrate]
hygroscopicity [3]: less hygroscopic than the amorphous form of the sodium salt | RH range in which the 2.5 hydrate is stable ([3]; 25° C.): 20-90 % RH | dehydration ([3]; 25° C.): dehydrates between 20 and 0% RH | change in the chemical purity [4]: No change

XRPD after the GVS experiment [3]: no phase change | hygroscopicity [3]: non-hygroscopic | change in solid state [5]: no change in solid state | time the solid form is maintained in form B [6]: at least 6 hours
Molecule: [4-(6-fluoro-7-methylamino-2,4-dioxo-1,4-dihydro-2H-quinazolin-3-yl)-phenyl]-5-chloro-thiophen-2-yl-sulfonylurea potassium salt hemi hydrate [Form B of the potassium salt]
solvents that dissolved the salt [7]: 2-methoxyethanol was the only solvent that dissolved the potassium salt
